Source: patent US11384055B2 (BIOMARIN PHARMACEUTICAL INC., priority 2017, dated 2022)

What follows are molecules tested against T1, Human GO (Homo sapiens, UniProt Q9UJM8) (assay: GO enzymatic assay (coupled fluorescence/HRP assay, glycolate substrate)). Conditions: not given.
T1 construct: purchased Novus Biologicals NBP1-72412
T1 sequence (Q9UJM8 1-370): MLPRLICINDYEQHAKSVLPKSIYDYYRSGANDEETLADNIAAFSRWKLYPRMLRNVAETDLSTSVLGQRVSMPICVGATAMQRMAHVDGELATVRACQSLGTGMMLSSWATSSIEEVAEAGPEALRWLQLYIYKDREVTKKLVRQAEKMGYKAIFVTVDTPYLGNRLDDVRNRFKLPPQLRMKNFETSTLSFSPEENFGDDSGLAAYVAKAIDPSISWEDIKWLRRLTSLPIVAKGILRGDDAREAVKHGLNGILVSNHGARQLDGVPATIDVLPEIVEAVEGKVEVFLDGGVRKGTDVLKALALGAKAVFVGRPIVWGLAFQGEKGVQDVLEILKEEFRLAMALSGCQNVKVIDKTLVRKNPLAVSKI
Format: biochemical
How it was run: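 Human GO incubated with glycolate substrate in 50 mM potassium phosphate, pH 7, with varying inhibitor concentrations. Activity read by coupled HRP fluorescence. IC50 taken from variable-slope sigmoidal dose-response fits of percent inhibition relative to DMSO control.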

IC50 [µM] | Compound
< 0.1 | O=C(O)c1[nH]nnc1Oc1ccc(C2CCCCC2)cc1 [Compound 273, 4-(4-cyclohexylphenoxy)-1H-1,2,3-triazole-5-carboxylic acid]

Same assay, conditions: Table 2; read-out: Range (range of IC50 values calculated from the enzymatic assays)

IC50 [µM] | Compound
1 to 10 | CC(C)(C)C(=O)OCOC(=O)c1[nH]nnc1OC1CCc2cc(Cl)c(Cl)cc2C1 (centres unmarked) [Compound 258, (pivaloyloxy)methyl 4-((6,7-dichloro-1,2,3,4-tetrahydronaphthalen-2-yl)oxy)-1H-1,2,3-triazole-5-carboxylate]
< 0.1 | CC(=O)NCCOc1cccc(-c2ccc(Oc3nn[nH]c3C(=O)O)cc2)c1 [Compound 259, 4-((3′-(2-acetamidoethoxy)-[1,1′-biphenyl]-4-yl)oxy)-1H-1,2,3-triazole-5-carboxylic acid]
0.1 to 1 | O=C(O)c1[nH]nnc1OC1CCN(c2ccc3cnccc3c2)CC1 [Compound 260, 4-((1-(isoquinolin-6-yl)piperidin-4-yl)oxy)-1H-1,2,3-triazole-5-carboxylic acid 2,2,2-trifluoroacetate]
1 to 10 | O=C(OCOC(=O)c1[nH]nnc1OC1CCc2cc(Cl)c(Cl)cc2C1)c1ccccc1 (centres unmarked) [Compound 261, (benzoyloxy)methyl 4-((6,7-dichloro-1,2,3,4-tetrahydronaphthalen-2-yl)oxy)-1H-1,2,3-triazole-5-carboxylate]
< 0.1 | O=C(O)c1[nH]nnc1Oc1cccc(OCC2CC2)c1 [Compound 262, 4-(3-(cyclopropylmethoxy)phenoxy)-1H-1,2,3-triazole-5-carboxylic acid 2,2,2-trifluoroacetate]
< 0.1 | O=C(O)c1[nH]nnc1Oc1ccc(C2CCOCC2)cc1 [Compound 263, 4-(4-(tetrahydro-2H-pyran-4-yl)phenoxy)-1H-1,2,3-triazole-5-carboxylic acid 2,2,2-trifluoroacetate]
< 0.1 | O=C(O)c1[nH]nnc1COc1ccc(Cl)c(Cl)c1 [Compound 264, 4-((3,4-dichlorophenoxy)methyl)-1H-1,2,3-triazole-5-carboxylic acid 2,2,2-trifluoroacetate]
< 0.1 | O=C(O)c1[nH]nnc1COc1ccc(-c2ccc(OC(F)(F)F)cc2)cc1 [Compound 265, 4-(((4′-(trifluoromethoxy)-[1,1′-biphenyl]-4-yl)oxy)methyl)-1H-1,2,3-triazole-5-carboxylic acid]
< 0.1 | O=C(O)c1[nH]nnc1COc1ccc(-c2ccc(Cl)c(Cl)c2)cc1 [Compound 266, 4-(((3′,4′-dichloro-[1,1′-biphenyl]-4-yl)oxy)methyl)-1H-1,2,3-triazole-5-carboxylic acid 2,2,2-trifluoroacetate]
< 0.1 | CCC(=O)OCOC(=O)c1[nH]nnc1OC1CCc2cc(Cl)c(Cl)cc2C1 (centres unmarked) [Compound 267, (propionyloxy)methyl 4-((6,7-dichloro-1,2,3,4-tetrahydronaphthalen-2-yl)oxy)-1H-1,2,3-triazole-5-carboxylate]
< 0.1 | O=C(O)c1[nH]nnc1Oc1ccc(C2CC(F)(F)C2)cc1 [Compound 268, 4-(4-(3,3-difluorocyclobutyl)phenoxy)-1H-1,2,3-triazole-5-carboxylic acid]
< 0.1 | O=C(O)c1[nH]nnc1OCc1ccc(Cl)c(Cl)c1 [Compound 269, 4-((3,4-dichlorobenzyl)oxy)-1H-1,2,3-triazole-5-carboxylic acid]
< 0.1 | O=C(O)c1[nH]nnc1OC1CCN(c2ccc(Cl)cc2)CC1 [Compound 270, 4-((1-(4-chlorophenyl)piperidin-4-yl)oxy)-1H-1,2,3-triazole-5-carboxylic acid 2,2,2-trifluoroacetate]
< 0.1 | O=C(O)c1[nH]nnc1OC1Cc2cc(F)c(F)cc2C1 [Compound 271, 4-((5,6-difluoro-2,3-dihydro-1H-inden-2-yl)oxy)-1H-1,2,3-triazole-5-carboxylic acid]
< 0.1 | O=C(O)c1[nH]nnc1OCc1ccc(-c2ccc(OC(F)(F)F)cc2)cc1 [Compound 274, 4-((4′-(trifluoromethoxy)-[1,1′-biphenyl]-4-yl)methoxy)-1H-1,2,3-triazole-5-carboxylic acid]
< 0.1 | O=C(O)c1[nH]nnc1OC1CCC(c2ccc(OC(F)(F)F)cc2)C1 (centres unmarked) [Compound 275, 4-((3-(4-(trifluoromethoxy)phenyl)cyclopentyl)oxy)-1H-1,2,3-triazole-5-carboxylic acid]
< 0.1 | O=C(O)c1[nH]nnc1SC1CCc2cc(Cl)c(Cl)cc2C1 (centres unmarked) [Compound 277, 4-((6,7-dichloro-1,2,3,4-tetrahydronaphthalen-2-yl)thio)-1H-1,2,3-triazole-5-carboxylic acid]
1 to 10 | O=C(OCOC(=O)c1[nH]nnc1Sc1ccc(-c2ccc(N3CCCCC3)cc2)cc1)c1ccccc1 [Compound 278, (benzoyloxy)methyl 4-((4′-(piperidin-1-yl)-[1,1′-biphenyl]-4-yl)thio)-1H-1,2,3-triazole-5-carboxylate]

IC50 [µM] | Compound
< 0.1 | O=C(O)c1[nH]nnc1Oc1ccc(C2CCC(F)(F)CC2)cc1 [Compound 279, 4-(4-(4,4-difluorocyclohexyl)phenoxy)-1H-1,2,3-triazole-5-carboxylic acid]
< 0.1 | O=C(O)c1[nH]nnc1OC1CCC2(CC1)CC2 [Compound 280, 4-(spiro[2.5]octan-6-yloxy)-1H-1,2,3-triazole-5-carboxylic acid 2,2,2-trifluoroacetate]
0.1 to 1 | CC1(C)CCCc2cc(Oc3nn[nH]c3C(=O)O)ccc21 [Compound 281, 4-((5,5-dimethyl-5,6,7,8-tetrahydronaphthalen-2-yl)oxy)-1H-1,2,3-triazole-5-carboxylic acid]
< 0.1 | O=C(O)c1[nH]nnc1OC1Cc2ccc(OC(F)(F)F)cc2C1 (centres unmarked) [Compound 282, 4-((5-(trifluoromethoxy)-2,3-dihydro-1H-inden-2-yl)oxy)-1H-1,2,3-triazole-5-carboxylic acid]
< 0.1 | O=C(O)c1[nH]nnc1OC1CCC2(CCCCC2)CC1 [Compound 283, 4-(spiro[5.5]undecan-3-yloxy)-1H-1,2,3-triazole-5-carboxylic acid]
< 0.1 | O=C(O)c1[nH]nnc1OC1CCC2(CCCC2)CC1 [Compound 284, 4-(spiro[4.5]decan-8-yloxy)-1H-1,2,3-triazole-5-carboxylic acid]
< 0.1 | O=C(O)c1[nH]nnc1OC1CCN(c2cc(Cl)cc(Cl)c2)CC1 [Compound 285, 4-((1-(3,5-dichlorophenyl)piperidin-4-yl)oxy)-1H-1,2,3-triazole-5-carboxylic acid 2,2,2-trifluoroacetate]
< 0.1 | O=C(O)c1[nH]nnc1OC1CCN(c2ccc(Cl)c(Cl)c2)CC1 [Compound 286, 4-((1-(3,4-dichlorophenyl)piperidin-4-yl)oxy)-1H-1,2,3-triazole-5-carboxylic acid 2,2,2-trifluoroacetate]
< 0.1 | O=C(O)c1[nH]nnc1OC1CCN(c2ccc(C(F)(F)F)cc2)CC1 [Compound 287, 4-((1-(4-(trifluoromethyl)phenyl)piperidin-4-yl)oxy)-1H-1,2,3-triazole-5-carboxylic acid 2,2,2-trifluoroacetate]
0.1 to 1 | O=C(O)c1[nH]nnc1Oc1cc(OCC2CC2)cc(C(F)(F)F)c1 [Compound 288, 4-(3-(cyclopropylmethoxy)-5-(trifluoromethyl)phenoxy)-1H-1,2,3-triazole-5-carboxylic acid]
< 0.1 | O=C(O)c1[nH]nnc1Oc1cc(Cl)cc(OCC2CC2)c1 [Compound 289, 4-(3-chloro-5-(cyclopropylmethoxy)phenoxy)-1H-1,2,3-triazole-5-carboxylic acid 2,2,2-trifluoroacetate]
< 0.1 | O=C(O)c1[nH]nnc1Oc1cccc(OCC2CCCC2)c1 [Compound 290, 4-(3-(cyclopentylmethoxy)phenoxy)-1H-1,2,3-triazole-5-carboxylic acid 2,2,2-trifluoroacetate]
< 0.1 | O=C(O)c1[nH]nnc1OC1CCN(c2cc(Cl)ccc2Cl)CC1 [Compound 291, 4-((1-(2,5-dichlorophenyl)piperidin-4-yl)oxy)-1H-1,2,3-triazole-5-carboxylic acid 2,2,2-trifluoroacetate]
< 0.1 | O=C(O)c1[nH]nnc1Oc1ccc(Cl)c(OCC2CC2)c1 [Compound 292, 4-(4-chloro-3-(cyclopropylmethoxy)phenoxy)-1H-1,2,3-triazole-5-carboxylic acid]
< 0.1 | O=C(O)c1[nH]nnc1Oc1cc(OCC2CC2)ccc1Cl [Compound 293, 4-(2-chloro-5-(cyclopropylmethoxy)phenoxy)-1H-1,2,3-triazole-5-carboxylic acid]
< 0.1 | O=C(O)c1[nH]nnc1Oc1ccc(C(F)(F)F)c(OCC2CC2)c1 [Compound 295, 4-(3-(cyclopropylmethoxy)-4-(trifluoromethyl)phenoxy)-1H-1,2,3-triazole-5-carboxylic acid]
< 0.1 | O=C(O)c1[nH]nnc1Oc1ccc(-c2ccc(N3CCC(F)(F)CC3)cc2)cc1 [Compound 297, 4-((4′-(4,4-difluoropiperidin-1-yl)-[1,1′-biphenyl]-4-yl)oxy)-1H-1,2,3-triazole-5-carboxylic acid 2,2,2-trifluoroacetate]

Same assay, conditions: Table 3; read-out: Range (range of IC50 values calculated from the enzymatic assays)

IC50 [µM] | Compound
< 0.1 | O=C(O)c1[nH]nnc1OC(Cc1ccc(Cl)cc1)Cc1ccc(Cl)cc1 [Compound 294, 4-((1,3-bis(4-chlorophenyl)propan-2-yl)oxy)-1H-1,2,3-triazole-5-carboxylic acid]
> 10 | O=C(O)c1[nH]nnc1OC(CCc1ccccc1)c1ccccc1 (centres unmarked) [Compound 296, 4-(1,3-diphenylpropoxy)-1H-1,2,3-triazole-5-carboxylic acid]
